PubChem BioAssay AID2060623 (Molecular Pharmacology Branch, DTP, NCI, 2025)

System: 227483-062-R1-J1-PDC complex spheroids with HUVEC/MSC, viability
Assay: Anticancer human tumor 227483-062-R1-J1-PDC patient-derived pancreatic carcinoma cell line growth inhibition [CLK]
Details: for IC50: curve of first compound; for viability, T/C: stronger effect = lower value
Procedure, shortened: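 Patient-derived tumor cells grown as complex spheroids with HUVEC endothelial cells and mesenchymal stem cells, treated with drug combinations. Concentrations descend in half-log steps from near clinical Cmax, or from 10 microM if Cmax unknown.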
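Further: spheroids exposed to compounds for seven days before readout.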
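Wherever viability, T/C is given: percent of DMSO vehicle control luminescence as 100% viability.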

NC(=O)C(=Cn1cnc(-c2cc(C(F)(F)F)cc(C(F)(F)F)c2)n1)c1cncnc1 + CN1CCN(c2cc(C(=O)Nc3cc4cc(-c5cnn(C)c5)ccc4cn3)ccn2)CC1
IC50 (second compound 0.0316 µM): 387 nM | IC50 (second compound 0.1 µM): 62.1 nM | IC50 (second compound 0.316 µM): < 9.49 nM | IC50 (second compound 1 µM): < 9.49 nM | IC50 (second compound 3.16 µM): < 9.49 nM | IC50 (second compound 10 µM): < 9.49 nM | viability, T/C (second compound 0.0316 µM, first compound 0.00949 µM): 83.4% | viability, T/C (second compound 0.0316 µM, first compound 0.03 µM): 105% | viability, T/C (second compound 0.0316 µM, first compound 0.0949 µM): 78.6% | viability, T/C (second compound 0.0316 µM, first compound 0.3 µM): 60.6% | viability, T/C (second compound 0.0316 µM, first compound 0.949 µM): 18.8% | viability, T/C (second compound 0.0316 µM, first compound 3 µM): 5.44% | viability, T/C (second compound 0.1 µM, first compound 0.00949 µM): 69.7% | viability, T/C (second compound 0.1 µM, first compound 0.03 µM): 76.6% | viability, T/C (second compound 0.1 µM, first compound 0.0949 µM): 35.9% | viability, T/C (second compound 0.1 µM, first compound 0.3 µM): 13.9% | viability, T/C (second compound 0.1 µM, first compound 0.949 µM): 3.19% | viability, T/C (second compound 0.1 µM, first compound 3 µM): 1.66% | viability, T/C (second compound 0.316 µM, first compound 0.00949 µM): 3.14% | viability, T/C (second compound 0.316 µM, first compound 0.03 µM): 3.15% | viability, T/C (second compound 0.316 µM, first compound 0.0949 µM): 1.63% | viability, T/C (second compound 0.316 µM, first compound 0.3 µM): 1.68% | viability, T/C (second compound 0.316 µM, first compound 0.949 µM): 1.4% | viability, T/C (second compound 0.316 µM, first compound 3 µM): 1.39% | viability, T/C (second compound 1 µM, first compound 0.00949 µM): 1.5% | viability, T/C (second compound 1 µM, first compound 0.03 µM): 1.97% | viability, T/C (second compound 1 µM, first compound 0.0949 µM): 1.83% | viability, T/C (second compound 1 µM, first compound 0.3 µM): 2.32% | viability, T/C (second compound 1 µM, first compound 0.949 µM): 2.43% | viability, T/C (second compound 1 µM, first compound 3 µM): 2.17% | viability, T/C (second compound 3.16 µM, first compound 0.00949 µM): 1.89% | viability, T/C (second compound 3.16 µM, first compound 0.03 µM): 3.42% | viability, T/C (second compound 3.16 µM, first compound 0.0949 µM): 3.73% | viability, T/C (second compound 3.16 µM, first compound 0.3 µM): 5.05% | viability, T/C (second compound 3.16 µM, first compound 0.949 µM): 3.43% | viability, T/C (second compound 3.16 µM, first compound 3 µM): 3.12% | viability, T/C (second compound 10 µM, first compound 0.00949 µM): 1.57% | viability, T/C (second compound 10 µM, first compound 0.03 µM): 2.14% | viability, T/C (second compound 10 µM, first compound 0.0949 µM): 2.32% | viability, T/C (second compound 10 µM, first compound 0.3 µM): 2.15% | viability, T/C (second compound 10 µM, first compound 0.949 µM): 1.97% | viability, T/C (second compound 10 µM, first compound 3 µM): 1.44%

C#Cc1c(F)ccc2cc(O)cc(-c3ncc4c(N5CC6CCC(C5)N6)nc(OCC56CCCN5CC(F)C6)nc4c3F)c12 (centres undefined) + CNC(=O)c1ccc(Nc2nc(OC3CCCC3)c3c(-c4ccc5nc(C)oc5c4)c[nH]c3n2)c(OC)c1
IC50 (second compound 0.0316 µM): > 10000 nM | IC50 (second compound 0.1 µM): > 10000 nM | IC50 (second compound 0.316 µM): > 10000 nM | IC50 (second compound 1 µM): 5620 nM | IC50 (second compound 3.16 µM): 301 nM | IC50 (second compound 10 µM): < 31.6 nM | viability, T/C (second compound 0.0316 µM, first compound 0.0316 µM): 101% | viability, T/C (second compound 0.0316 µM, first compound 0.1 µM): 110% | viability, T/C (second compound 0.0316 µM, first compound 0.316 µM): 112% | viability, T/C (second compound 0.0316 µM, first compound 1 µM): 131% | viability, T/C (second compound 0.0316 µM, first compound 3.16 µM): 122% | viability, T/C (second compound 0.0316 µM, first compound 10 µM): 87.7% | viability, T/C (second compound 0.1 µM, first compound 0.0316 µM): 96.2% | viability, T/C (second compound 0.1 µM, first compound 0.1 µM): 120% | viability, T/C (second compound 0.1 µM, first compound 0.316 µM): 116% | viability, T/C (second compound 0.1 µM, first compound 1 µM): 111% | viability, T/C (second compound 0.1 µM, first compound 3.16 µM): 127% | viability, T/C (second compound 0.1 µM, first compound 10 µM): 68.5% | viability, T/C (second compound 0.316 µM, first compound 0.0316 µM): 106% | viability, T/C (second compound 0.316 µM, first compound 0.1 µM): 97.7% | viability, T/C (second compound 0.316 µM, first compound 0.316 µM): 94.8% | viability, T/C (second compound 0.316 µM, first compound 1 µM): 100% | viability, T/C (second compound 0.316 µM, first compound 3.16 µM): 87.8% | viability, T/C (second compound 0.316 µM, first compound 10 µM): 58.9% | viability, T/C (second compound 1 µM, first compound 0.0316 µM): 78.3% | viability, T/C (second compound 1 µM, first compound 0.1 µM): 71.9% | viability, T/C (second compound 1 µM, first compound 0.316 µM): 74.7% | viability, T/C (second compound 1 µM, first compound 1 µM): 61.9% | viability, T/C (second compound 1 µM, first compound 3.16 µM): 61.1% | viability, T/C (second compound 1 µM, first compound 10 µM): 41.6% | viability, T/C (second compound 3.16 µM, first compound 0.0316 µM): 49.2% | viability, T/C (second compound 3.16 µM, first compound 0.1 µM): 57.4% | viability, T/C (second compound 3.16 µM, first compound 0.316 µM): 51% | viability, T/C (second compound 3.16 µM, first compound 1 µM): 41.9% | viability, T/C (second compound 3.16 µM, first compound 3.16 µM): 43.8% | viability, T/C (second compound 3.16 µM, first compound 10 µM): 33.5% | viability, T/C (second compound 10 µM, first compound 0.0316 µM): 42.1% | viability, T/C (second compound 10 µM, first compound 0.1 µM): 38% | viability, T/C (second compound 10 µM, first compound 0.316 µM): 43.7% | viability, T/C (second compound 10 µM, first compound 1 µM): 34.6% | viability, T/C (second compound 10 µM, first compound 3.16 µM): 34.8% | viability, T/C (second compound 10 µM, first compound 10 µM): 28.3%
